According to patent US5837687A, “Azapeptide derivative” (Fujirebio Inc., priority 1994, dated 1998):

Target: T1, NKA receptor (Mesocricetus auratus, UniProt P51144)
T1 construct: from tissue; host or cells: hamster respiratory tract (trachea) ring specimens
T1 sequence (P51144 1-384): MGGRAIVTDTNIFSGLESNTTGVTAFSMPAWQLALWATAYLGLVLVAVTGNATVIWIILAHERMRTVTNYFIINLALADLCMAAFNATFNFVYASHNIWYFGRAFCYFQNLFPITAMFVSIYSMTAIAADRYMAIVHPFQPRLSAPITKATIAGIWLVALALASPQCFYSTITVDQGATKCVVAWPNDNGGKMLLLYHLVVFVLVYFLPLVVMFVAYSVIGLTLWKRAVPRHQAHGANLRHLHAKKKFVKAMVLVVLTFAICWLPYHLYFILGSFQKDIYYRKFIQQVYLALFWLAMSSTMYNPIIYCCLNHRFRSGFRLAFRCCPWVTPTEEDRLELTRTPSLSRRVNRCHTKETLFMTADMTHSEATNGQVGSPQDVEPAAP
Assay: Activity to constriction of hamster respiratory tracts caused by NKA (isolated tissue, tension)
Format: cell-based
Description: The activity of the azapeptide derivative of the present invention to a NKA receptor was evaluated by the following method.
(1) Activity to constriction of hamster respiratory tracts caused by NKA
Respiratory tracts were taken out from male Syrian strain Golden hamsters having a body weight of 100 to 180 g, and cyclic specimens having a width of 3 to 6 mm were prepared. The specimens were incubated at 37° C. and suspended by loading a static tension of 0.5 g, in a reaction tank charged with 15 ml of a Tyrode solution (137 mM of NaCl, 2.7 mM of KCl, 1.8 mM of CaCl2, 1.02 mM of MgCl2, 11.9 mM of NaHCO3, 0.42 mM of NaH2 PO4 and 5.5 mM of glucose) in which 95% O2 -5% CO2 had been passed.
The compound to be tested was charged into the reaction tank and maintained for 5 minutes. 1×10^-7 M of NKA was charged into the reaction tank, and tension caused thereby was recorded. The examined effect of the tested compound as an antagonist was shown by IC50.

Row | SMILES | IC50
1 | CC(C)(C)OC(=O)N[C@@H](CC(=O)OCc1ccccc1)C(=O)N[C@@H](CCC(N)=O)C(=O)N[C@@H](Cc1c[nH]c2ccccc12)C(=O)NN(Cc1ccccc1)C(N)=O [Example 1 (3), Boc-Asp(OBzl)-Gln-Trp-AzPhe-NH2] | 45 nM
2 | CC(C)(C)OC(=O)N[C@@H](Cc1c[nH]c2ccccc12)C(=O)NN(Cc1ccccc1)C(=O)NCCOCc1ccccc1 [Example 2 (1), Boc-Trp-AzPhe-NH(CH2)2 OCH2 Ph] | 310 nM
3 | CC(C)(C)OC(=O)N[C@@H](CCC(N)=O)C(=O)N[C@@H](Cc1c[nH]c2ccccc12)C(=O)NN(Cc1ccccc1)C(=O)NCCOCc1ccccc1 [Example 2 (2), Boc-Gln-Trp-AzPhe-NH(CH2)2 OCH2 Ph] | 0.66 nM
4 | CC(C)(C)OC(=O)N[C@@H](CC(=O)OCc1ccccc1)C(=O)N[C@@H](CCC(N)=O)C(=O)N[C@@H](Cc1c[nH]c2ccccc12)C(=O)NN(Cc1ccccc1)C(=O)NCCOCc1ccccc1 [Example 2 (3), Boc-Asp(OBzl)-Gln-Trp-AzPhe-NH(CH2)2 OCH2 Ph] | 1.9 nM
5 | CC(C)CCC(=O)N[C@@H](CCC(N)=O)C(=O)N[C@@H](Cc1c[nH]c2ccccc12)C(=O)NN(Cc1ccccc1)C(=O)NCCOCc1ccccc1 [Example 3, i-Pent-CO-Gln-Trp-AzPhe-NH(CH2)2 OCH2 Ph] | 0.6 nM
6 | NC(=O)CC[C@H](NC(=O)c1ccccc1)C(=O)N[C@@H](Cc1c[nH]c2ccccc12)C(=O)NN(Cc1ccccc1)C(=O)NCCOCc1ccccc1 [Example 4, Bz-Gln-Trp-AzPhe-NH(CH2)2 OCH2 Ph] | 2.3 nM
7 | NC(=O)CC[C@H](NC(=O)C1CCCC1)C(=O)N[C@@H](Cc1c[nH]c2ccccc12)C(=O)NN(Cc1ccccc1)C(=O)NCCOCc1ccccc1 [Example 5, cyPent-CO-Gln-Trp-AzPhe-NH(CH2)2 OCH2 Ph] | 2.2 nM
8 | CC(C)(C)NC(=O)N[C@@H](CCC(N)=O)C(=O)N[C@@H](Cc1c[nH]c2ccccc12)C(=O)NN(Cc1ccccc1)C(=O)NCCOCc1ccccc1 [Example 6, t-Bu-NHCO-Gln-Trp-AzPhe-NH(CH2)2 OCH2 Ph] | 0.6 nM
9 | CC(C)CCNC(=O)N[C@@H](CCC(N)=O)C(=O)N[C@@H](Cc1c[nH]c2ccccc12)C(=O)NN(Cc1ccccc1)C(=O)NCCOCc1ccccc1 [Example 7, i-Pent-NHCO-Gln-Trp-AzPhe-NH(CH2)2OCH2 Ph] | 0.5 nM
10 | NC(=O)CC[C@H](NC(=O)NC1CCCC1)C(=O)N[C@@H](Cc1c[nH]c2ccccc12)C(=O)NN(Cc1ccccc1)C(=O)NCCOCc1ccccc1 [Example 8, cyPent-NHCO-Gln-Trp-AzPhe-NH (CH2)2 OCH2 Ph] | 0.7 nM
11 | CC(C)(C)OC(=O)N[C@@H](CCS(C)(=O)=O)C(=O)N[C@@H](Cc1c[nH]c2ccccc12)C(=O)NN(Cc1ccccc1)C(=O)NCCOCc1ccccc1 [Example 9, Boc-Met(O2)-Trp-AzPhe-NH (CH2)2 OCH2 Ph] | 1.4 nM
12 | CC(C)(C)OC(=O)N[C@@H](CC(N)=O)C(=O)N[C@@H](Cc1c[nH]c2ccccc12)C(=O)NN(Cc1ccccc1)C(=O)NCCOCc1ccccc1 [Example 10, Boc-Asn-Trp-AzPhe-NH(CH2)2 OCH2 Ph] | 6.8 nM
13 | CSCC[C@H](NC(=O)OC(C)(C)C)C(=O)N[C@@H](Cc1c[nH]c2ccccc12)C(=O)NN(Cc1ccccc1)C(=O)NCCOCc1ccccc1 [Example 11, Boc-Met-Trp-AzPhe-NH(CH2)2 OCH2 Ph] | 8.9 nM
14 | CC(C)(C)OC(=O)N[C@@H](CCCNC(=O)OCc1ccccc1)C(=O)N[C@@H](Cc1c[nH]c2ccccc12)C(=O)NN(Cc1ccccc1)C(=O)NCCOCc1ccccc1 [Example 13 (1), Boc-Orn(Z)-Trp-AzPhe-NH (CH2)2 OCH2 Ph] | 80 nM
15 | CC(C)(C)OC(=O)N[C@@H](CCCN)C(=O)N[C@@H](Cc1c[nH]c2ccccc12)C(=O)NN(Cc1ccccc1)C(=O)NCCOCc1ccccc1 [Example 13 (2), Boc-Orn-Trp-AzPhe-NH(CH2)2 OCH2 Ph] | 78 nM
16 | CC(C)(C)OC(=O)N[C@@H](CCCNC(N)=O)C(=O)N[C@@H](Cc1c[nH]c2ccccc12)C(=O)NN(Cc1ccccc1)C(=O)NCCOCc1ccccc1 [Example 14, Boc-Cit-Trp-AzPhe-NH(CH2)2 OCH2 Ph] | 24 nM
17 | CC(C)(C)OC(=O)N[C@@H](CCCNC(=N)N[N+](=O)[O-])C(=O)N[C@@H](Cc1c[nH]c2ccccc12)C(=O)NN(Cc1ccccc1)C(=O)NCCOCc1ccccc1 [Example 15, Boc-Arg(NO2)-Trp-AzPhe-NH(CH2)2 OCH2 Ph] | 35 nM

Row | SMILES | IC50
18 | CC(C)(C)OC(=O)N[C@@H](CC(=O)OCc1ccccc1)C(=O)N[C@@H](Cc1c[nH]c2ccccc12)C(=O)NN(Cc1ccccc1)C(=O)NCCOCc1ccccc1 [Example 16 (1), Boc-Asp(OBzl)-Trp-AzPhe-NH(CH2)2 OCH2 Ph] | 13 nM
19 | CC(C)(C)OC(=O)N[C@@H](CC(=O)O)C(=O)N[C@@H](Cc1c[nH]c2ccccc12)C(=O)NN(Cc1ccccc1)C(=O)NCCOCc1ccccc1 [Example 16 (2), Boc-Asp-Trp-AzPhe-NH(CH2)2 OCH2 Ph] | 13 nM
20 | CC(C)(C)OC(=O)N[C@@H](CCC(N)=O)C(=O)N[C@@H](Cc1c[nH]c2ccccc12)C(=O)NN(Cc1ccccc1)C(=O)NCc1ccc(F)cc1 [Example 17 (2), Boc-Gln-Trp-AzPhe-NHCH2 Ph(4-F)] | 29 nM
21 | CC(C)(C)OC(=O)N[C@@H](CC(=O)OCc1ccccc1)C(=O)N[C@@H](CCC(N)=O)C(=O)N[C@@H](Cc1c[nH]c2ccccc12)C(=O)NN(Cc1ccccc1)C(=O)NCc1ccc(F)cc1 [Example 17 (3), Boc-Asp(OBzl)-Gln-Trp-AzPhe-NHCH2 Ph(4-F)] | 4.2 nM
22 | CC(C)(C)OC(=O)N[C@@H](CCC(N)=O)C(=O)N[C@@H](Cc1c[nH]c2ccccc12)C(=O)NN(Cc1ccccc1)C(=O)NCCOCc1ccc(F)cc1 [Example 18 (2), Boc-Gln-Trp-AzPhe-NH(CH2)2 OCH2 Ph(4-F)] | 5.6 nM
23 | CC(C)(C)OC(=O)N[C@@H](CC(=O)OCc1ccccc1)C(=O)N[C@@H](CCC(N)=O)C(=O)N[C@@H](Cc1c[nH]c2ccccc12)C(=O)NN(Cc1ccccc1)C(=O)NCCc1ccccc1 [Example 19 (3), Boc-Asp(OBzl)-Gln-Trp-AzPhe-NH(CH2)2 Ph] | 5.3 nM
24 | CC(C)(C)OC(=O)N[C@@H](CC(=O)OCc1ccccc1)C(=O)N[C@@H](CCC(N)=O)C(=O)N[C@@H](Cc1c[nH]c2ccccc12)C(=O)NN(Cc1ccccc1)C(=O)NCc1ccccc1 [Example 20 (3), Boc-Asp(OBzl)-Gln-Trp-AzPhe-NHCH2 Ph] | 1.7 nM
25 | CC(C)CCC(=O)N[C@@H](CC(=O)OCc1ccccc1)C(=O)N[C@@H](CCC(N)=O)C(=O)N[C@@H](Cc1c[nH]c2ccccc12)C(=O)NN(Cc1ccccc1)C(=O)NCc1ccccc1 [Example 21, i-Pent-CO-Asp(OBzl)-Gln-Trp-AzPhe-NHCH2 Ph] | 1.7 nM
26 | COc1ccc(CNC(=O)N(Cc2ccccc2)NC(=O)[C@H](Cc2c[nH]c3ccccc23)NC(=O)[C@H](CCC(N)=O)NC(=O)[C@H](CC(=O)OCc2ccccc2)NC(=O)OC(C)(C)C)c(OC)c1 [Example 22, Boc-Asp(OBzl)-Gln-Trp-AzPhe-NHDmob] | 4900 nM
27 | CNC(=O)N(Cc1ccccc1)NC(=O)[C@H](Cc1c[nH]c2ccccc12)NC(=O)[C@H](CCC(N)=O)NC(=O)[C@H](CC(=O)OCc1ccccc1)NC(=O)OC(C)(C)C [Example 23 (3), Boc-Asp(OBzl)-Gln-Trp-AzPhe-NHCH3] | 78 nM
28 | CC(C)(C)OC(=O)N[C@@H](CC(=O)OCc1ccccc1)C(=O)N[C@@H](CCC(N)=O)C(=O)N[C@@H](Cc1c[nH]c2ccccc12)C(=O)NN(Cc1ccccc1)C(=O)NCCO [Example 24 (2), Boc-Asp(OBzl)-Gln-Trp-AzPhe-NH(CH2)2 OH] | 46 nM
29 | CC(C)CNC(=O)N(Cc1ccccc1)NC(=O)[C@H](Cc1c[nH]c2ccccc12)NC(=O)[C@H](CCC(N)=O)NC(=O)[C@H](CC(=O)OCc1ccccc1)NC(=O)OC(C)(C)C [Example 25 (3), Boc-Asp(OBzl)-Gln-Trp-AzPhe-NHCH2 CH(CH3)2] | 34 nM
30 | CC(C)(C)OC(=O)N[C@@H](CC(=O)OCc1ccccc1)C(=O)N[C@@H](CCC(N)=O)C(=O)N[C@@H](Cc1c[nH]c2ccccc12)C(=O)NN(Cc1ccccc1)C(=O)N1CCOCC1 [Example 26 (3), Boc-Asp(OBzl)-Gln-Trp-AzPhe-M] | 830 nM
31 | CC(C)(C)OC(=O)N[C@@H](CC(=O)OCc1ccccc1)C(=O)N[C@@H](CCC(N)=O)C(=O)N[C@H](Cc1c[nH]c2ccccc12)C(=O)NN(Cc1ccccc1)C(N)=O [Example 27 (3), Boc-Asp(OBzl)-Gln-D-Trp-AzPhe-NH2] | 990 nM
32 | CC(C)(C)OC(=O)N[C@@H](CC(=O)OCc1ccccc1)C(=O)N[C@@H](CCC(N)=O)C(=O)N[C@@H](Cc1c[nH]c2ccccc12)C(=O)NN(Cc1ccccc1)C(=O)OCc1ccccc1 [Example 28 (3), Boc-Asp(OBzl)-Gln-Trp-AzPhe-OBzl] | 27 nM
33 | CC(C)(C)OC(=O)N[C@@H](CC(=O)OCc1ccccc1)C(=O)N[C@@H](CCC(N)=O)C(=O)N[C@@H](Cc1c[nH]c2ccccc12)C(=O)NN(Cc1ccccc1)C(=O)Nc1ccccc1 [Example 29 (3, Boc-Asp(OBzl)-Gln-Trp-AzPhe-NHPh] | 190 nM
